# Measurements as given in US20260285850A1, “SUBSTITUTED OXAZOLIDINONES AND IMIDAZOLINONES AS HERBICIDES” (FMC CORPORATION, priority 2023, published 2026).
# Columns and labels:
# Format in all cases: in vivo
# [1] = tested on: barnyardgrass (Echinochloa crus-galli); test: Test A preemergence soil spray, visual injury rating 0-100; conditions: 10 days, 0 = no effect, 100 = complete control
# Method in brief: (§1)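 Scale 0–100 (no effect to complete control), visual, versus untreated controls, read 10 days after application. Application: preemergence directed spray onto seeded loam–sand soil, or postemergence to young plants; formulation in non-phytotoxic solvent with surfactant.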
# [2] = tested on: green foxtail (Setaria viridis); test: as above; conditions: 10 days, 0 = no effect, 100 = complete control
# Method in brief: as §1
# [3] = tested on: oat, wild (wild oat, Avena fatua); test: as above; conditions: 10 days, 0 = no effect, 100 = complete control
# Method in brief: as §1
# [4] = tested on: palmer (palmer amaranth, palmer pigweed, Amaranthus palmeri); test: as above; conditions: 10 days, 0 = no effect, 100 = complete control
# Method in brief: as §1
# kochia (Bassia scoparia) [5] = test: as above; conditions: 10 days, 0 = no effect, 100 = complete control
# Method in brief: as §1
# soybean (Glycine max) [6] = test: as above; conditions: 10 days, 0 = no effect, 100 = complete control
# Method in brief: as §1
# [7] = tested on: ragweed (common ragweed, Ambrosia artemisiifolia); test: as above; conditions: 10 days, 0 = no effect, 100 = complete control
# Method in brief: as §1
# [8] = tested on: wheat (Triticum aestivum); test: as above; conditions: 10 days, 0 = no effect, 100 = complete control
# Method in brief: as §1
# corn (Zea mays) [9] = test: as above; conditions: 10 days, 0 = no effect, 100 = complete control
# Method in brief: as §1
# [10] = tested on: blackgrass (Alopecurus myosuroides); test: as above; conditions: 10 days, 0 = no effect, 100 = complete control
# Method in brief: as §1
# [11] = tested on: ryegrass, Italian (italian ryegrass, Lolium multiflorum); test: as above; conditions: 10 days, 0 = no effect, 100 = complete control
# Method in brief: as §1
# [12] = tested on: barnyardgrass (Echinochloa crusgalli); test: Test B flooded paddy test, visual plant response rating 0-100; conditions: 250 g ai/ha, Flood, applied to paddy water, evaluated after 13 days
# Method in brief: (§2)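 Visual evaluation after 13 days. Water-applied treatment, 3 cm flood depth held constant, plants at 2-leaf stage at treatment.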
# [13] = tested on: sedge, umbrella (small-flower umbrella sedge, Cyperus difformis); test: as above; conditions: 250 g ai/ha, Flood, applied to paddy water, evaluated after 13 days
# Method in brief: as §2
# rice (Oryza sativa) = test: as above; conditions: 250 g ai/ha, Flood, applied to paddy water, evaluated after 13 days
# Method in brief: as §2
# [14] = tested on: ducksalad (Heteranthera limosa); test: as above; conditions: 250 g ai/ha, Flood, applied to paddy water, evaluated after 13 days
# Method in brief: as §2
# [15] = tested on: barnyardgrass (Echinochloa crus-galli); test: Test A postemergence application, visual injury rating 0-100; conditions: Postemergence
# Method in brief: as §1
# [16] = tested on: green foxtail (Setaria viridis); test: as above; conditions: Postemergence
# Method in brief: as §1
# [17] = tested on: oat, wild (wild oat, Avena fatua); test: as above; conditions: Postemergence
# Method in brief: as §1
# [18] = tested on: palmer (palmer amaranth, palmer pigweed, Amaranthus palmeri); test: as above; conditions: Postemergence
# Method in brief: as §1
# kochia (Bassia scoparia) [19] = test: as above; conditions: Postemergence
# Method in brief: as §1
# [20] = tested on: horseweed (Erigeron canadensis); test: as above; conditions: Postemergence
# Method in brief: as §1
# soybean (Glycine max) [21] = test: as above; conditions: Postemergence
# Method in brief: as §1
# [22] = tested on: ragweed (common ragweed, Ambrosia artemisiifolia); test: as above; conditions: Postemergence
# Method in brief: as §1
# [23] = tested on: wheat (Triticum aestivum); test: as above; conditions: Postemergence
# Method in brief: as §1
# corn (Zea mays) [24] = test: as above; conditions: Postemergence
# Method in brief: as §1
# [25] = tested on: blackgrass (Alopecurus myosuroides); test: as above; conditions: Postemergence
# Method in brief: as §1
# [26] = tested on: galium (catchweed bedstraw, Galium aparine); test: as above; conditions: Postemergence
# Method in brief: as §1
# [27] = tested on: ryegrass, Italian (italian ryegrass, Lolium multiflorum); test: as above; conditions: Postemergence
# Method in brief: as §1
# [28] = 31 g ai/ha, greenhouse 10 days, 0 no effect, 100 complete control
# [29] = 125 g ai/ha, 10 days, 0 is no effect, 100 is complete control
structure (smiles),measurement,setting,value
COC(=O)COC(=O)C1C=CC(NC(=O)C2(C)CN(c3cc(Cl)cc(Cl)c3)C(=O)O2)C1 (stereo not shown) [Compound 65],Barnyardgrass plant response rating (0-100),[1]; 31 g ai/ha,90
same,Barnyardgrass plant response rating (0 to 100 scale),[1]; 125 g ai/ha,90
same,"Foxtail, Green plant response rating (0-100)",[2]; 31 g ai/ha,90
same,"Foxtail, Green plant response rating (0 to 100 scale)",[2]; 125 g ai/ha,90
same,"Oat, Wild plant response rating (0-100)",[3]; 31 g ai/ha,20
same,"Oat, Wild plant response rating (0 to 100 scale)",[3]; 125 g ai/ha,80
same,"Amaranth, Palmer plant response rating (0-100)",[4]; 31 g ai/ha,100
same,"Amaranth, Palmer plant response rating (0 to 100 scale)",[4]; 125 g ai/ha,100
same,Kochia plant response rating (0-100),kochia (Bassia scoparia) [5]; 31 g ai/ha,10
same,Kochia plant response rating (0 to 100 scale),kochia (Bassia scoparia) [5]; 125 g ai/ha,10
same,Soybean plant response rating (0-100),soybean (Glycine max) [6]; 31 g ai/ha,10
same,Soybean plant response rating (0 to 100 scale),soybean (Glycine max) [6]; 125 g ai/ha,70
same,Ragweed plant response rating (0-100),[7]; 31 g ai/ha,10
same,Ragweed plant response rating (0 to 100 scale),[7]; 125 g ai/ha,70
same,Wheat plant response rating (0-100),[8]; 31 g ai/ha,50
same,Wheat plant response rating (0 to 100 scale),[8]; 125 g ai/ha,90
same,Corn plant response rating (0-100),corn (Zea mays) [9]; 31 g ai/ha,0
same,Corn plant response rating (0 to 100 scale),corn (Zea mays) [9]; 125 g ai/ha,70
same,Blackgrass plant response rating (0-100),[10]; 31 g ai/ha,50
same,Blackgrass plant response rating (0 to 100 scale),[10]; 125 g ai/ha,70
same,"Ryegrass, Italian plant response rating (0-100)",[11]; 31 g ai/ha,70
same,"Ryegrass, Italian plant response rating (0 to 100 scale)",[11]; 125 g ai/ha,90
same,"Plant response rating, Barnyardgrass (0 to 100 scale, 0 is no effect and 100 is complete control)",[12],75
same,"Plant response rating, Sedge, Umbrella (0 to 100 scale, 0 is no effect and 100 is complete control)",[13],100
same,"Plant response rating, Rice (0 to 100 scale, 0 is no effect and 100 is complete control)",rice (Oryza sativa),60
same,"Plant response rating, Ducksalad (0 to 100 scale, 0 is no effect and 100 is complete control)",[14],95
same,Barnyardgrass plant response rating (0 to 100 scale),[15]; [28],100
same,Barnyardgrass plant response rating (0 to 100 scale),[15]; [29],100
same,"Foxtail, Green plant response rating (0 to 100 scale)",[16]; [28],90
same,"Foxtail, Green plant response rating (0 to 100 scale)",[16]; [29],90
same,"Oat, Wild plant response rating (0 to 100 scale)",[17]; [28],90
same,"Oat, Wild plant response rating (0 to 100 scale)",[17]; [29],90
same,"Amaranth, Palmer / Pigweed, Palmer plant response rating (0 to 100 scale)",[18]; [28],90
same,"Amaranth, Palmer / Pigweed, Palmer plant response rating (0 to 100 scale)",[18]; [29],90
same,Kochia plant response rating (0 to 100 scale),kochia (Bassia scoparia) [19]; [28],80
same,Kochia plant response rating (0 to 100 scale),kochia (Bassia scoparia) [19]; [29],90
same,Horseweed plant response rating (0 to 100 scale),[20]; [28],70
same,Horseweed plant response rating (0 to 100 scale),[20]; [29],70
same,Soybean plant response rating (0 to 100 scale),soybean (Glycine max) [21]; [28],80
same,Soybean plant response rating (0 to 100 scale),soybean (Glycine max) [21]; [29],80
same,Ragweed plant response rating (0 to 100 scale),[22]; [28],80
same,Ragweed plant response rating (0 to 100 scale),[22]; [29],80
same,Wheat plant response rating (0 to 100 scale),[23]; [28],90
same,Wheat plant response rating (0 to 100 scale),[23]; [29],90
same,Corn plant response rating (0 to 100 scale),corn (Zea mays) [24]; [28],100
same,Corn plant response rating (0 to 100 scale),corn (Zea mays) [24]; [29],100
same,Blackgrass plant response rating (0 to 100 scale),[25]; [28],90
same,Blackgrass plant response rating (0 to 100 scale),[25]; [29],100
same,Galium plant response rating (0 to 100 scale),[26]; [28],80
same,Galium plant response rating (0 to 100 scale),[26]; [29],90
same,"Ryegrass, Italian plant response rating (0 to 100 scale)",[27]; [28],100
same,"Ryegrass, Italian plant response rating (0 to 100 scale)",[27]; [29],100
